Results published in the supplement of paper PMC10307832.

What was measured:
Test in all cases: relative viability (nuclei count vs DMSO), 5 days (fraction); higher = more cells survive
BAM7 = compound: CCOC1=CC=CC=C1N=NC2=C(NN(C2=O)C3=NC(=CS3)C4=CC=CC=C4)C [BAM7]
Outline: (§1)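 Cells of lung cancer lines were placed in 1536-well plates and kept overnight at 37 °C. Pinning then delivered five library-drug doses (not always all listed), spaced by √10, onto plates anchored with vehicle, and the cells were left 5 days without changing medium. One step fixed, permeabilised and stained them with Hoechst, and MetaXpress counted nuclei in 4× images. Viability, as a median over plates, is treated-well nuclei divided by vehicle-well nuclei, with acceptance only at control CV below 25% and at least one doubling.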

[1] = compound: CCn1c(-c2nonc2N)nc2c(C#CC(C)(C)O)ncc(OC[C@H]3CCCNC3)c21
Outline: as §1

BAM7 + Trametinib = compound: CCOC1=CC=CC=C1N=NC2=C(NN(C2=O)C3=NC(=CS3)C4=CC=CC=C4)C [BAM7] + CC(=O)Nc1cccc(-n2c(=O)n(C3CC3)c(=O)c3c(Nc4ccc(I)cc4F)n(C)c(=O)c(C)c32)c1 [Trametinib] (partner 0.02 µM)
Outline: (§2)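 Values are medians from duplicate plates. Each reflects relative viability, defined as the nuclei count of treated wells over that of vehicle wells. Lung cancer cell lines in 1536-well plates were pin-tool dosed one day after seeding with one drug alone or with a fixed anchor-drug dose plus five library-drug doses (not always all listed) in √10 steps, then fixed, stained and imaged at 4× after 5 days.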

[2] = compound: CCn1c(-c2nonc2N)nc2c(C#CC(C)(C)O)ncc(OC[C@H]3CCCNC3)c21 + CC1(C)CCC(c2ccc(Cl)cc2)=C(CN2CCN(c3ccc(C(=O)NS(=O)(=O)c4ccc(N[C@H](CCN5CCOCC5)CSc5ccccc5)c(S(=O)(=O)C(F)(F)F)c4)cc3)CC2)C1 [Navitoclax] (partner 0.5 µM)
Outline: as §2

Cell Line	relative viability (BAM7; 0.5 µM)	relative viability (BAM7; 5 µM)	relative viability (BAM7; 15.81 µM)	relative viability (BAM7; 50 µM)	relative viability ([1]; 0.01 µM)	relative viability ([1]; 0.03162 µM)	relative viability ([1]; 0.1 µM)	relative viability ([1]; 0.3162 µM)	relative viability ([1]; 1 µM)	relative viability (BAM7 + Trametinib; first compound 0.5 µM)	relative viability (BAM7 + Trametinib; first compound 5 µM)	relative viability (BAM7 + Trametinib; first compound 15.81 µM)	relative viability (BAM7 + Trametinib; first compound 50 µM)	relative viability ([2]; first compound 0.01 µM)	relative viability ([2]; first compound 0.03162 µM)	relative viability ([2]; first compound 0.1 µM)	relative viability ([2]; first compound 0.3162 µM)	relative viability ([2]; first compound 1 µM)
NCI-H1975	0.823	0.898	0.775	0.903	0.932	1	0.96	0.921	0.843	0.329	0.366	0.332	0.415	1.03	1.3	1.12	1.14	1.03
NCI-H1944	0.947	0.949	0.857	1	0.941	0.922	0.919	0.935	1.01	0.444	0.433	0.434	0.439	1.11	0.954	1.13	1.05	1.08
LU99A	1.09	1.02	0.979	1.07	1.07	1.13	0.889	0.854	0.922	0.54	0.548	0.552	0.575	0.714	0.959	0.841	0.776	0.807
SW 1573	1.03	1.18	0.969	1.08	0.98	0.932	0.871	0.677	0.777	0.633	0.592	0.541	0.528	0.895	0.859	0.934	0.943	0.735
NCI-H2347	1.13	1.11	1.06	1.03	1	1.03	0.956	1	0.93	0.326	0.32	0.277	0.287	0.849	0.751	0.813	0.796	0.882
NCI-H2009	1.04	1.12	0.994	1.04	1	1	1.02	0.95	0.932	0.265	0.229	0.268	0.283	1.17	1.17	1.2	1.12	1.11
HCC-15	1.01	1.01	0.97	0.927	0.959	1.02	1.04	0.952	0.914	0.341	0.374	0.331	0.384	0.72	0.752	0.721	0.634	0.653
HCC-44	0.923	0.997	1.02	1.01	0.951	0.852	0.979	0.974	0.993	1.07	1.11	0.983	1.12	0.938	0.956	0.944	0.851	0.981
COR-L23	0.982	1.07	0.966	1.01	0.991	1.04	0.986	0.973	1.04	0.519	0.58	0.614	0.657	0.838	1.05	1.01	0.968	1.03
HCC-78	1.06	0.879	1.07	1.04	0.882	0.926	0.971	0.962	0.844	0.579	0.805	0.689	0.819	0.661	0.826	0.678	0.654	0.71
NCI-H727	0.962	0.811	0.881	0.937	1.02	0.866	0.871	0.848	0.973	0.413	0.414	0.393	0.386	0.387	0.376	0.563	0.373	0.418
NCI-H2087	1.18	1.14	1.11	1.13	0.931	1.05	1.04	1.06	0.915	0.18	0.181	0.204	0.173	0.832	1.08	0.961	1.03	1.02
BEN	1.04	1.05	1.11	0.981	0.988	1.03	0.735	0.935	0.962	1.04	1.1	0.851	1.05	0.0596	0.0766	0.0603	0.0534	0.0741
EKVX	1.05	0.982	0.843	0.86	0.962	0.942	0.97	0.933	0.924	0.474	0.301	0.294	0.308	0.882	0.858	0.927	0.908	0.853
LXF-289	1.06	1.07	1.01	0.929	1.03	0.991	1.03	0.972	1.11	0.739	0.762	0.734	0.641	0.978	0.949	0.935	0.886	0.926
NCI-H1650	1.02	0.884	0.826	1.04	0.941	0.994	0.877	0.841	0.833	0.607	0.467	0.578	0.727	1.2	1.04	1.03	0.894	1.13
NCI-H2085	0.995	0.976	0.933	1.01	0.991	0.977	1	0.937	0.97	0.587	0.521	0.471	0.52	1.12	1.09	1.1	1.08	1.07
